Reference: ChEMBL document CHEMBL1201862, “PubChem BioAssay data set” (2004)
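Dose response: 5 concentrations. Exposure: 48 h. Format: 96-well plates. Endpoint: linear interpolation; highest concentration if not reached. GI50 is the concentration that inhibits growth by half.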 Activity calls are given as the source filed them. No stated cut-off is given here; in the data, active = GI50 up to about 1.1 µM and inactive = higher.

What was measured:
Assay in all cases: growth of human tumour cells (NCI), 48 h
A498 = tested on: A498
COLO 205 = tested on: COLO 205
DU-145 = tested on: DU-145
HCT-116 = tested on: HCT-116
HT-29 = tested on: HT-29
Hs-578T = tested on: Hs-578T
IGROV-1 = tested on: IGROV-1
MOLT-4 = tested on: MOLT-4
NCI-H460 = tested on: NCI-H460
NCI-H522 = tested on: NCI-H522
OVCAR-5 = tested on: OVCAR-5
RXF 393 = tested on: RXF 393
SF-539 = tested on: SF-539
SK-MEL-28 = tested on: SK-MEL-28
SK-MEL-2 = tested on: SK-MEL-2
SR = tested on: SR
TK-10 = tested on: TK-10
U-251 = tested on: U-251
UACC-257 = tested on: UACC-257
UO-31 = tested on: UO-31

SMILES	GI50 (A498)	GI50 (COLO 205)	GI50 (DU-145)	GI50 (HCT-116)	GI50 (HT-29)	GI50 (Hs-578T)	GI50 (IGROV-1)	GI50 (MOLT-4)	GI50 (NCI-H460)	GI50 (NCI-H522)	GI50 (OVCAR-5)	GI50 (RXF 393)	GI50 (SF-539)	GI50 (SK-MEL-28)	GI50 (SK-MEL-2)	GI50 (SR)	GI50 (TK-10)	GI50 (U-251)	GI50 (UACC-257)	GI50 (UO-31)
CC1(C)[C@H]2CC[C@](C)(C2)[C@]1(S)Cc1ccccn1	> 100 µM (inactive)	34.3 µM (inactive)	22.4 µM (inactive)	32.8 µM (inactive)	24.9 µM (inactive)	57.8 µM (inactive)	30.8 µM (inactive)	15.3 µM (inactive)	27.2 µM (inactive)	65.9 µM (inactive)	88.9 µM (inactive)	26.7 µM (inactive)	> 100 µM (inactive)	> 100 µM (inactive)	20.8 µM (inactive)	18.1 µM (inactive)	32.4 µM (inactive)	14.4 µM (inactive)	25.6 µM (inactive)	> 100 µM (inactive)
C[C@H]1CC(=O)[C@@]2(O)C#C/C=C\C#C[C@@H]3Nc4c(cc(O)c5c4C(=O)c4ccccc4C5=O)[C@]24O[C@]314	0.0586 µM (active)	0.0568 µM (active)	0.00189 µM (active)	0.00982 µM (active)	0.0619 µM (active)	0.811 µM (active)	0.16 µM (active)	< 0.001 µM (active)	< 0.001 µM (active)	0.0504 µM (active)	0.0685 µM (active)	0.0114 µM (active)	0.00316 µM (active)	0.0338 µM (active)	0.478 µM (active)	0.00256 µM (active)	0.0574 µM (active)	0.00701 µM (active)	0.00231 µM (active)	< 0.001 µM (active)
O=C(c1c2c(cc3c1CC1(Cc4cc5c(cc4C1)CCCC5)C3)CCCC2)C(Br)Br	29.7 µM (inactive)	13.2 µM (inactive)	> 58.5 µM (inactive)	14.9 µM (inactive)	20.3 µM (inactive)	30.8 µM (inactive)	9.02 µM (inactive)	1.85 µM (inactive)	40.2 µM (inactive)	1.65 µM (inactive)	22.9 µM (inactive)	6.73 µM (inactive)	20.2 µM (inactive)	16.5 µM (inactive)	19.2 µM (inactive)	2.69 µM (inactive)	17 µM (inactive)	16.2 µM (inactive)	19.9 µM (inactive)	13.8 µM (inactive)
CCN(CC)CCNC(=O)c1ccc(I)cc1	44.3 µM (inactive)	> 100 µM (inactive)	> 100 µM (inactive)	> 100 µM (inactive)	33.3 µM (inactive)	> 100 µM (inactive)	> 100 µM (inactive)	> 100 µM (inactive)	> 100 µM (inactive)	> 100 µM (inactive)	> 100 µM (inactive)	> 100 µM (inactive)	> 100 µM (inactive)	> 100 µM (inactive)	> 100 µM (inactive)	> 100 µM (inactive)	> 100 µM (inactive)	> 100 µM (inactive)	> 100 µM (inactive)	> 100 µM (inactive)
C=C(C)[C@@H]1CCC2=C(CC[C@]3(C)[C@@H]([C@@H](CCC=C(C)C)C(=O)O)[C@H](O)C[C@@]23C)[C@@]1(C)CCC(=O)O [PORICOIC ACID G]	> 100 µM (inactive)	52.8 µM (inactive)	> 100 µM (inactive)	54.1 µM (inactive)	47.4 µM (inactive)	> 100 µM (inactive)	42.6 µM (inactive)	> 100 µM (inactive)	46.8 µM (inactive)	44.2 µM (inactive)	45.4 µM (inactive)	41.4 µM (inactive)	59.3 µM (inactive)	66.8 µM (inactive)	70.3 µM (inactive)	29.4 µM (inactive)	> 100 µM (inactive)	22.4 µM (inactive)	> 100 µM (inactive)	> 100 µM (inactive)
